The text below walks through data of patent US20140322139A1, “STABILIZATION OF X-RAY DIAGNOSTIC COMPOSITION” (GE HEALTHCARE AS, priority 2011, published 2014).

Data set [1] in a line: Dissolution temperature of ioforminol in water for injection. It is filed as physicochemical. The conditions noted are these: water for injection as the solvent, concentration range 270-380 mg I/ml.
Data set [2] can be described thus: Physical stability study: visual inspection for crystallisation during storage. It is filed as physicochemical. The conditions noted are these: conclusion from the storage study of Ioforminol/Visipaque mixtures. Here is the method: Formulated Ioforminol (320 mg I/ml) and Visipaque (Iodixanol 320 mg I/ml) were filled on 100 ml glass vials in mixtures with ratios according to Table 1. The filling was performed by using a Flexicon PF5 peristaltic pump. The vials were sealed by closures comprising stoppers and overlying caps. The vials were split into two populations, one that was subjected to heat steam sterilisation at 121° C. (autoclaving) for 20 minutes and one that was used without further treatment.
The autoclaved and non-autoclaved samples of different mixtures were placed on storage at 25, 40 and 60° C. respectively. The samples were subjected to visual inspection weekly for the first 5 weeks before inspection was carried out monthly.

As to `O=CN(CC(O)CN(C=O)c1c(I)c(C(=O)NCC(O)CO)c(I)c(C(=O)NCC(O)CO)c1I)c1c(I)c(C(=O)NCC(O)CO)c(I)c(C(=O)NCC(O)CO)c1I` (centres unmarked) [Ioforminol, 5-[formyl-[3-[formyl-[3,5-bis(2,3-dihydroxypropylcarbamoyl)-2,4,6-triiodophenyl]amino]-2-hydroxypropyl]amino]-N,N′-bis(2,3-dihydroxypropyl)-2,4,6-triiodobenzene-1,3-dicarboxamide], the dissolution temperature in data set [1] was about 110 °C.
Take `CC(=O)N(CC(O)CN(C(C)=O)c1c(I)c(C(=O)NCC(O)CO)c(I)c(C(=O)NCC(O)CO)c1I)c1c(I)c(C(=O)NCC(O)CO)c(I)c(C(=O)NCC(O)CO)c1I` (centres unmarked) [Iodixanol]: in data set [2], the “inhibition of primary nucleation” value is recorded as “potent inhibitor of primary nucleation”.
